pIC50: −log10 of the molar value. Where two headings read alike, the source gives them in different places.
Legend:
B. mandrillaris cysts = test: Dose response, viability of preformed galactose-induced cysts; format: cell-based, Balamuthia mandrillaris; settings: 72 h
Description: Following the findings of a previous study, encystment of B. mandrillaris was induced by galactose exposure ([74]). B. mandrillaris trophozoites were grown to log phase in axenic media, and galactose was added to reach a final concentration of 12% (vol/vol). Amoebae were cultured in the induction medium until trophozoites were no longer observed (approximately 10 days). Galactose-induced cysts transition back to trophozoites after approximately 3 days of incubation in galactose-free axenic medium. Therefore, all assays with cysts were completed in the induction medium. […] All incubation steps for B. mandrillaris growth were carried out at 37°C with 5% CO2.
(§1) B. mandrillaris trophozoites were seeded at 4,000 amoebae per well into opaque and clear-bottom 96-well plates (Corning). Homogenous populations of B. mandrillaris cysts generated by galactose induction were seeded at 4,000 amoebae per well into opaque 96-well plates. HFF-1 (fibroblast), H4 (glial), U87 (glial), HEK-293T (kidney), and Hep-G2 (liver) cells were seeded at 3,000 cells per well in opaque 96-well plates 24 h prior to addition of drug. Stocks of nitroxoline (Selleck Chemicals) were dissolved in 100% DMSO at 10 mM. Stocks of azithromycin (Selleck Chemicals), pentamidine isethionate (Selleck Chemicals), and miltefosine (Selleck Chemicals) were dissolved in water at 10 mM. Drug stocks were serially diluted in water to generate 12-point dilution series, which were then used to treat assay wells containing B. mandrillaris or human cells at final concentrations ranging from 0.39 µM to 400 µM in 100-µl total well volumes. Control wells were treated with vehicle (DMSO or water) at concentrations corresponding to the final vehicle concentrations in each drug dilution series. After incubation for 72 h, 50 µl of CTG was added to all assay wells. Luminescence was measured with a Promega GloMax-Multi+ plate reader 2, 4, and […] after CTG addition. All dose-response experiments were performed with at least three independent biological replicates. IC50 values were determined as previously described. To quantify encystment under treated and untreated conditions, amoebae in individual assay wells were resuspended thoroughly and the number of cysts and number of trophozoites in 10-µl samples were counted by the use of a hemocytometer (SKC, Inc.). Cysts and trophozoites are morphologically distinct, making them simple to distinguish with bright-field microscopy (example images are shown in Fig. S1 in the supplemental material). Encystment assays were performed with three independent biological replicates.

[1] = Cytotoxicity, mean of all cell lines; format: cell-based; settings: human, U87, H4, HEK-293T, HFF-1 and Hep-G2 cell lines (mean of all), unit inferred
Description: as §1

B. mandrillaris [2] = test: Recrudescence assay on HFF-1 monolayer after drug treatment; format: cell-based, Balamuthia mandrillaris
[3] = Cytotoxicity dose response, H4; format: cell-based; settings: human, H4 (glial) cells, unit not given in Table S3, drug concentrations in µM, read-out: CC50 H4 cell line
Description: as §1

[4] = Cytotoxicity dose response, HEK-293T; format: cell-based; settings: human, HEK-293T (kidney) cells, unit not given in Table S3, drug concentrations in µM, read-out: CC50 HEK-293T cell line
Description: as §1

[5] = tested on: B. mandrillaris trophozoites; test: Drug combination dose matrices, trophozoite viability (EOHSA model); format: cell-based, Balamuthia mandrillaris; settings: Fig S2B, 72 h
Description: Experiments measuring the effect of drug combinations were carried out similarly to the dose-response experiments described above. B. mandrillaris trophozoites were seeded into opaque 96-well plates (Corning) at a density of 4,000 amoebae per well and then treated with concentrations of nitroxoline that differed across the rows of each plate and with concentrations of either miltefosine or pentamidine isethionate that differed down the columns to generate 7-by-7 dose combination matrices. Final drug concentrations ranged from 0.5 to 10 µM, from 10 to 100 µM, and from 1 to 100 µM for nitroxoline, miltefosine, and pentamidine isethionate, respectively. After incubation with drug or vehicle was performed for 72 h, CTG was added to all assay wells and luminescence was measured with a Promega Glomax-Multi+ plate reader. The percent effect of each drug combination was calculated as the reduction in luminescence value relative to vehicle-only controls. The additive effect of drug combinations was assessed using the excess over highest single agent (EOHSA) model ([76], [77]). […] Drug combination experiments were performed with three independent replicates.

[6] = Cytotoxicity dose response, U87; format: cell-based; settings: human, U87 (glial) cells, unit not given in Table S3, drug concentrations in µM, read-out: CC50 U87 cell line
Description: as §1

[7] = tested on: B. mandrillaris trophozoites; test: Side-by-side dose response, trophozoite viability; format: cell-based, Balamuthia mandrillaris; settings: Balamuthia mandrillaris, 72 h, read-out: IC50, B. mandrillaris trophozoites, 72 h
Description: as §1

B. mandrillaris [8] = test: Encystment assay, counts of cysts and trophozoites; format: cell-based, Balamuthia mandrillaris; settings: 72 h of treatment with different drug concentrations
Description: as §1

[9] = tested on: H4 human neuroglioma cells; test: Secondary screening dose response, toxicity to H4 cells; format: cell-based; settings: Homo sapiens; 72 h; approximated from dose-response curves
[10] = tested on: B. mandrillaris trophozoites; test: Secondary screening dose response, B. mandrillaris trophozoites; format: cell-based, Balamuthia mandrillaris; settings: Balamuthia mandrillaris, 72 h, read-out: B. mandrillaris IC50
Description: (§2) Secondary screening of hit compounds consisted of dose-response experiments to measure the toxicity of each compound to B. mandrillaris trophozoites, HFF-1 human fibroblast cells, and H4 human neuroglioma cells. Four 384-well plates were prepared prior to addition of drug as follows: one opaque plate (Corning) seeded with 3,000 HFF-1 cells per well in 60 µl complete media, one opaque plate seeded with 2,000 H4 cells per well in 60 µl complete media, one opaque plate containing 30 µl axenic media, and one clear plate (Corning) containing 30 µl axenic media. Opaque plates were used to measure the viability of trophozoites in the CTG assay, and clear plates were used for microscopic examination of cyst formation. HFF-1 and H4 plates were seeded 24 h prior to drug addition. The selected primary screen hits were added from 10 mM DMSO stocks into wells of all four test plates to reach final concentrations ranging from 0.06 µM to 30 µM (10 concentrations, 2-fold serial dilution). Negative-control wells received concentrations of DMSO corresponding to the amount of DMSO in each tested drug well (reaching a maximum of 0.3% DMSO). B. mandrillaris trophozoites were resuspended in axenic media and added to the plates containing drug dilutions in axenic media at a density of 3,000 amoebae per well in a final volume of 60 µl media. All plates were incubated for 72 h. Throughout the incubation period, the clear-bottom B. mandrillaris plate was monitored for large-scale changes to population encystment in response to drug treatment. After the 72-h incubation, 30 µl of CTG reagent was added to all wells of the opaque assay plates and luminescence was measured with a Promega GloMax-Multi+ plate reader at 2, 4, and 8 h after CTG addition.

[11] = Cytotoxicity dose response, Hep-G2; format: cell-based; settings: human, Hep-G2 (liver) cells, unit not given in Table S3, drug concentrations in µM, read-out: CC50 Hep-G2 cell line
Description: as §1

B. mandrillaris [12] = tested on: B. mandrillaris; design: method as in PMID 15347743, PMID 23869955, PMID 16579814; settings: in vitro; cited from earlier work
[13] = tested on: B. mandrillaris trophozoites; test: microbe, parasite or virus in culture; format: cell-based, Balamuthia mandrillaris; settings: Balamuthia mandrillaris, 72 h
[14] = tested on: HFF-1 human fibroblast cells; test: Secondary screening dose response, toxicity to HFF-1 cells; format: cell-based; settings: Homo sapiens, HFF-1; 72 h; approximated from dose-response curves; read-out: HFF1 IC50
Description: as §2

[15] = Cytotoxicity dose response, HFF-1; format: cell-based; settings: human, HFF-1 (fibroblast) cells, unit not given in Table S3, drug concentrations in µM, read-out: CC50 HFF-1 cell line
Description: as §1

N=C(N)c1ccc(OCCCCCOc2ccc(C(=N)N)cc2)cc1 [Pentamidine isethionate]
pIC50 (B. mandrillaris cysts; Balamuthia mandrillaris, read-out: IC50, B. mandrillaris cysts, preformed cysts, 12% galactose induction medium, 72 h): 4.58 | pIC50 (B. mandrillaris cysts; preformed cysts, 12% galactose induction medium, read-out: IC50, B. mandrillaris cysts): 4.58 | CC50 at 72 h [1]: 11.1 µM | Mean no. of days for host cell clearance ± SE (B. mandrillaris [2]; 3.5 µM for 72 h, then drug-free coculture with HFF-1, 28-day experiment): 1.33 ± 0.33 days | Mean no. of days for host cell clearance ± SE (B. mandrillaris [2]; 7 µM for 72 h, then drug-free coculture with HFF-1, 28-day experiment): 7 ± 1.15 days | Mean no. of days for host cell clearance ± SE (B. mandrillaris [2]; 14 µM for 72 h, then drug-free coculture with HFF-1, 28-day experiment): 13 ± 2.51 days | Mean no. of days for host cell clearance ± SE (B. mandrillaris [2]; 28 µM for 72 h, then drug-free coculture with HFF-1, NRT = no recovery of trophozoites or host cell destruction observed through 28 days): 15.33 ± 2.56 days | Mean no. of days for host cell clearance ± SE (B. mandrillaris [2]; 56 µM for 72 h, then drug-free coculture with HFF-1, 28-day experiment): 16 ± 2 days | CC50 at 72 h [3]: 5.7 µM | CC50 at 72 h [4]: 4.8 µM | Percent inhibition of B. mandrillaris viability ([5]; pentamidine 1 µM alone): -1% | Percent inhibition of B. mandrillaris viability ([5]; pentamidine 5 µM alone): 32% | Percent inhibition of B. mandrillaris viability ([5]; pentamidine 10 µM alone): 51% | Percent inhibition of B. mandrillaris viability ([5]; pentamidine 20 µM alone): 62% | Percent inhibition of B. mandrillaris viability ([5]; pentamidine 50 µM alone): 68% | Percent inhibition of B. mandrillaris viability ([5]; pentamidine 100 µM alone): 82% | CC50 at 72 h [6]: 20.7 µM | pIC50 [7]: 5.04 | encystment response (B. mandrillaris [8]): increase in both the total number and the proportion of cysts | pIC50 [9]: 5.10 | pIC50 [10]: 4.96 | CC50 at 72 h [11]: 0.7 µM | inhibition of amoebic growth (B. mandrillaris [12]): amoebicidal or amoebistatic activity | inhibition at 20 µM [13]: 35% | pIC50 [14]: < 4.52 | CC50 at 72 h [15]: 23.4 µM

Reference: publication PMC6212833 (mBio, 2018)
